Experiments:
[1] = system: SUMOylation of His-RanGap (SUMO-E1 (SAE), SUMO-E2 (UBC9), GST-SUMO); assay: HTRF assay measuring increase in SUMOylation of His-RanGap; format: biochemical; conditions: His-RanGap substrate; HTRF 665/620 ratio; 30 min at room temperature; triplicate
Method: Assay Measuring Increase in SUMOylation of his-RanGap.
We utilized an HTRF assay containing SUMO-E1 (SAE), SUMO-E2 (UBC9), GST-SUMO and His-RanGap, a known SUMO substrate, as well as the respective fluorescent antibodies. The assay was run in 1536-well plate format and the selected activators were chosen based on their ability to increase the FRET signal over a baseline level. In 1536-well white plates, 2 μl of phosphate buffered saline (assay buffer) was dispensed into columns 1 and 2, and 2 μl of Mixture 1 (37.5 nM E1 and 100 nM His-RanGap-1) in assay buffer (50 mM Tris-HCl pH 7.4, 0.3 mM DTT, 10 mM MgCl2, 0.005% Tween-20), was dispensed into columns 3-48. Using a pintool, 70 nl of 2 mM compounds in DMSO was dispensed to columns 5-48 and 70 nl of DMSO was dispensed to columns 1-4. Using the Thermo Scientific MultiDrop Combi, 2 μL of Mixture 2 (20 mM ATP, 12.5 nM E2 and 30 nM GST-SUMO in buffer) was dispensed to all wells and incubated for 30 min. at room temperature followed by 1 μl of 500 mM KF. Plates were read on a PheraStar in a HTRF mode (Ex: 337 nm; Em: 620/665 nm). The ratio of fluorescence 665 over 620 was utilized as a readout of the assay. Increase in SUMOylation was calculated by comparison to baseline level. Measurements were done in triplicate.

CSM14.1 neuronal cells = assay: Rescue of CSM14.1 neurons from thapsigargin-induced cell death (ATPlite); format: cell-based; conditions: Rattus norvegicus, Neuron; 15 μM thapsigargin, 20 h; 10 μM compound, 2 h preincubation; cellular ATP content; read-out: % CSM14.1 Cell Viability after treatment with 15 μM TG in Presence of 10 μM compound
From the text: Ability of Compounds to Rescue CSM14.1 Neurons from Thapsigargin-Induced Cell Death.
To assess the ability of the compounds to rescue neurons from ER stress-induced cell death, the rat striatal neuroprogenitor cell line CSM14.1 was used. Endoplasmic reticulum (ER) stress has been established as the major cause of neuronal loss in stroke, ischemia, and neurodegeneration (Tajiri, S.; Oyadomari, S.; Yano, S.; Morioka, M.; Gotoh, T.; Hamada, J. I.; Ushio, Y.; Mori, M. Cell Death Differ. 2004, 11, 403-415; Kohno, K.; Higuchi, T.; Ohta, S.; Kumon, Y.; Sakaki, S. Neurosci. Lett. 1997, 224, 17-20; ladecola, C.; Zhang, F.; Casey, R.; Nagayama, M.; Ross, M. E. J. Neurosci. 1997, 17, 9157-9164). Thus, we used the known ER stress-causing agent thapsigargin (TG) to model the compromised state in vitro. TG causes 100% cell death in most cases, and compounds were assessed for neuroprotection by measuring cell viability when dosed at 10 μM. CSM14.1 cells were recovered from cultures by trypsinization and plated in 96-well plates and incubated overnight at 32° C. 5 μl of test compound was added to achieve a final concentration of […]. Salubrinal and DMSO without compound were used as positive and negative controls, respectively. After 2 h of preincubation, TG-containing DMEM was added to give a final concentration of 15 μM and incubated for an additional 20 h. Cell viability was assessed by a cellular ATP content assay (ATPlite, PerkinElmer Life Sciences).

| Structure (SMILES) | % INCREASE IN SUMOylation over endogenous baseline level [1] | viability at 10 µM (CSM14.1 neuronal cells) [%] |
| --- | --- | --- |
| Cc1ccc2sc(NNC(=O)c3cc(=O)c4ccccc4o3)nc2c1C [Compound B1, N′-(4,5-dimethylbenzo[d]thiazol-2-yl)-4-oxo-4H-chromene-2-carbohydrazide] | C (C = 31%-40% increase) | 40 to 50 |
| Cc1cc(C)c2nc(NNC(=O)c3cc(=O)c4ccccc4o3)sc2c1 [Compound B2, N′-(4,6-Dimethylbenzo[d]thiazol-2-yl)-4-oxo-4H-chromene-2-carbohydrazide] | C (C = 31%-40% increase) | 51 to 60 |
| COc1cccc2sc(NNC(=O)C3COc4ccccc4O3)nc12 (stereo not drawn) [Compound B3, N′-(4-methoxybenzo[d]thiazol-2-yl)-2,3-dihydrobenzo[b][1,4]dioxine-2-carbohydrazide] | A (A = 10%-20% increase) | 51 to 60 |

Source: patent US20200190077A1, “NEUROPROTECTIVE HYDRAZIDES” (priority 2018, published 2020)
